Source: paper PMC8608967, “KDS2010, a Newly Developed Reversible MAO-B Inhibitor, as an Effective Therapeutic Candidate for Parkinson’s Disease” (Neurotherapeutics, 2021)

How the values were obtained:
[1] = tested on: MPTP-induced PD mouse model; test: MPTP mouse model: vertical grid test and coat hanger test; type: in vivo; conditions: MPTP mice
Protocol: Group allocation and outcome assessment, but not the conduct of experiments and data analysis, were performed in a blinded manner. Throughout the study, confounders were not controlled. An acclimation period of 7 days was allowed for animals to stabilize in a new environment before model induction. […] Treatment drugs were dissolved in 100 μL of water and total dose (in mg) was calculated according to individual body weight (in kg).
The MPTP model was established using the acute regimen of four intraperitoneal (i.p.) injections of MPTP-HCl (M0896, Sigma Aldrich, 2 mg/mL in saline, 20 mg/kg for one injection) at 2-h intervals.
Motor deficits of the MPTP-induced PD mouse model were assessed using the vertical grid test as described in the previous study [23]. Briefly, after 2 days of habituation to the testing apparatus, individual mice were gently placed 3 cm from the top, facing upward, and allowed to turn around and climb down. We also performed a coat hanger test as described [24–26]. Briefly, a mouse was gently hung on the middle of a coat hanger and allowed to ascend to the top. Performance was graded as follows: 0, falling off the hanger within 20 s; 1, moving to the side-bar of the hanger; 2, reaching the side-bar of the hanger; 3, climbing the side-bar of the hanger; 4, moving to the top of the hanger; 5, climbing and reaching the safe zone. The test was performed twice and each trial lasted a maximum of 3 min.

[2] = tested on: MPTP-induced PD mouse model; test: MPTP mouse model: glial reactivity (GFAP, LCN2, Iba1 staining, western blot); type: in vivo; conditions: MPTP mice
Protocol: (§1) Throughout the study, confounders were not controlled.
After extensive washing, sections were incubated with corresponding fluorescent secondary antibodies for 2 h and then washed with three times in PBS. Finally, sections were mounted with fluorescent mounting medium (S3023, Dako) and dried. A series of fluorescent images were obtained using an A1 Nikon confocal microscope, and Z-stack images in 3-μm steps were processed for further analysis using ImageJ. Any alteration in brightness or contrast was applied equally to the entire image set.

[3] = tested on: A53T mutant α-synuclein-overexpressing PD model rats; test: A53T mutant α-synuclein rat model: stepping test and cylinder test; type: in vivo; conditions: 10 mg/kg/day for 15 days
Protocol: as §1
Motor dysfunction of A53T α-synuclein model rats was tested using the forelimb-use asymmetry test (cylinder test). Briefly, animals were placed in a transparent Plexiglas cylinder (20 cm in diameter and 30 cm in height) for 2 min to assess the frequency of ipsilesional and contralesional forelimb usage against the cylinder wall for supporting an upright body posture. The test score was calculated as the ratio of ipsilateral usage frequency to total ipsilateral plus contralateral usage frequency.

[4] = target: T1, human recombinant MAO-B (hMAO-B) (Homo sapiens, UniProt P27338); conditions: cited from earlier work
T1 construct: purchased Sigma Aldrich
T1 sequence (P27338 1-520): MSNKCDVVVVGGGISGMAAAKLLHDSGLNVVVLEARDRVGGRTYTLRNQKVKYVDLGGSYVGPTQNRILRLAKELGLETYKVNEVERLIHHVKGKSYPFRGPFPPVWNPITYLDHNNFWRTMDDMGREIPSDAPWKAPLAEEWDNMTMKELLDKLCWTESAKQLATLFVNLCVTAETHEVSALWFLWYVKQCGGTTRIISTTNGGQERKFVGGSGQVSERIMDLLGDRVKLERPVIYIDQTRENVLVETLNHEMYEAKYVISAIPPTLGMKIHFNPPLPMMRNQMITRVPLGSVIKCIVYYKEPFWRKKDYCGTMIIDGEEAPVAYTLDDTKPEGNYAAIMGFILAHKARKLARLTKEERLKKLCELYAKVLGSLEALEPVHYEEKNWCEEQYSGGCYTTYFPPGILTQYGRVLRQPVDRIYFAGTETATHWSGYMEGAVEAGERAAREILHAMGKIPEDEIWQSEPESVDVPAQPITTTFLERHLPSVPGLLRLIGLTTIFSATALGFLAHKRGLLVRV

[5] = target: T2, human recombinant MAO-A (hMAO-A) (Homo sapiens, UniProt P21397); conditions: ref Park, JH. et al. Science Advances. 5(3), eaav0136 (2019), read-out: Inhibition (IC50) MAO-A; cited from earlier work
T2 construct: purchased Sigma Aldrich
T2 sequence (P21397 1-527): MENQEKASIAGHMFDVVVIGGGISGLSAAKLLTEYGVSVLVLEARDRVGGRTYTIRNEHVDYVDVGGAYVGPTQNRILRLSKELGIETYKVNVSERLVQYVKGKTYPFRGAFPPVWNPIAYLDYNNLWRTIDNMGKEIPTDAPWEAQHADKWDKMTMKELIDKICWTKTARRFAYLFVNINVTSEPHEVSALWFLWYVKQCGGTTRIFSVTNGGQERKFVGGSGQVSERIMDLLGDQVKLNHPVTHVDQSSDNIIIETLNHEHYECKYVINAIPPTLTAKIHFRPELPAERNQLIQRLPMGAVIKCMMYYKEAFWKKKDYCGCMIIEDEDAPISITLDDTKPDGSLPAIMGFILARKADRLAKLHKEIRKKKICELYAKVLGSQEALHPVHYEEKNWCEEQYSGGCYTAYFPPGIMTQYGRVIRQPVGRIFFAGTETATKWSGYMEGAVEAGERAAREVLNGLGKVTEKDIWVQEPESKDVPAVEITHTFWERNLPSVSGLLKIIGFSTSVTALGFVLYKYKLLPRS

[6] = tested on: APP/PS1 transgenic mouse model of AD; design: method as in PMID 30906861; conditions: APP/PS1 mice; short-term (3 days) or long-term (30 days) treatment; cited from earlier work
[7] = tested on: post-stroke recovery; design: method as in PMID 32640227; conditions: long-term treatment accompanied by rehabilitation training; cited from earlier work
[8] = tested on: 6-OHDA model rats; test: 6-OHDA rat model: stepping test, rotarod test, TH; conditions: 6-OHDA rats
Protocol: Group allocation and outcome assessment, but not the conduct of experiments and data analysis, were performed in a blinded manner. Throughout the study, confounders were not controlled. An acclimation period of 7 days was allowed for animals to stabilize in a new environment before model induction. […] Treatment drugs were dissolved in 100 μL of water and total dose (in mg) was calculated according to individual body weight (in kg). […] An experiment was halted if body weight decreased by 20% or more after MPTP or 6-hydroxydopamine (6-OHDA) treatment.
Finally, the 6-OHDA model was prepared as previously described [21]. Under general anesthesia, all rats received unilateral injections of 8 μg 6-OHDA (Sigma Aldrich) in 4 μL saline/0.1% ascorbic acid into the right medial forebrain bundle (AP − 2.2 mm and L + 1.5 mm relative to the bregma, V − 8.0 mm from the dura) [19], with the tooth bar set at + 4.5 mm.
Motor deficits of 6-OHDA and A53T mutant α-synuclein model rats were assessed as previously described with slight modifications [27]. Briefly, both hind limbs and one forelimb were firmly fixed in the two hands of the experimenter, and the rat was lowered over a treadmill moving at rate of 18 cm/s such that the body remained stationary while the free forelimb was allowed to spontaneously touch the moving treadmill track for 10 s. All experimental sessions were video recorded to count the number of adjusting steps taken in the backward direction. The number of adjusting steps was averaged across four trials in each session.
In addition, impaired motor coordination of 6-OHDA model rats was examined using the rotarod test as previously described with slight modifications [28]. […] Before the first rotarod test, all rats were pre-trained until riding time reached 60 s at 10 rpm (B.S Technolab, Seoul, Korea). Each session consisted of two trials, and riding time was averaged to obtain pre-6-OHDA, 0d, 7d, and 15d results.

[9] = long-term (30-day) treatment, 10 mg/kg/day oral
[10] = post-treatment, administered 3 days after MPTP
[11] = pre-treatment, 10 mg/kg/day oral, 3 days starting 1 day before MPTP

C[C@H](NCc1ccc(-c2ccc(C(F)(F)F)cc2)cc1)C(N)=O [Compound 18j]
vertical grid test: time to turn [1, 9]: reduced | vertical grid test: total time [1, 9]: reduced | coat hanger test: motor score [1, 10]: increased | vertical grid test: rate of missed steps [1, 10]: significantly reduced | vertical grid test: time to turn [1, 10]: significantly reduced | vertical grid test: total time [1, 10]: significantly reduced | vertical grid test: rate of missed steps [1, 11]: significantly reduced | vertical grid test: time to turn [1, 11]: significantly reduced | vertical grid test: total time [1, 11]: significantly reduced | coat hanger test: motor function score ([1]; pre-treatment, 10 mg/kg/day oral, vehicle-treated controls 1.8 ± 0.4, score 0-5): 3.6 ± 0.5 | GFAP staining intensity in SNpc [2]: significantly reduced | LCN2 expression in GFAP-positive astrocytes [2]: reversed | number of Iba1-positive microglia in SNpc [2]: significantly reduced | reactive transformation of microglia (larger cell bodies, shorter processes) [2]: reversed | volume of GFAP-positive astrocytes in SNpc (hypertrophy) [2]: eliminated | MPTP-induced changes of TH, GFAP and iNOS expression (western blotting) ([2]; SNpc): all of these changes were reversed | cylinder test: asymmetric usage of forelimbs [3]: alleviated | stepping test: impaired stepping behavior of the contralateral forepaw [3]: significantly alleviated | mode of MAO-B inhibition ([4]; same binding cavity as selegiline): competitive inhibitor | reversibility of MAO-B inhibition ([4]; with enantiomeric selectivity): reversible | IC50 [5]: > 100 µM | memory impairment [6]: effectively ameliorated | post-stroke recovery [7]: dramatically improved | stepping test: stepping behavior deficit of the contralateral forepaw ([8]; 10 mg/kg/day for 15 days starting 17 days post-6-OHDA): partially but significantly improved | rotarod test: reduction in riding time (latency to fall) ([8]; 15 days' treatment starting 17 days after 6-OHDA): partially reversed | nigrostriatal TH loss ([8]; data not shown): not reversed
